Results from patent US7166622B2, “Substituted phenylsulfonamide inhibitors of beta amyloid production” (Wyeth, priority 2002, dated 2007).

Legend:
CHO-K1 cells = experiment: Toxicity in RRA (loss of luciferase signal); conditions: toxicity = loss of signal (<0.75 fold increase)
beta amyloid production = experiment: Repressor Release Assay (RRA); type: cell-based; conditions: luciferase activity over diluent control, read-out: APPI Fold Increase; for fold induction at 20 µg/mL: Conc 20 μg/ml; for fold induction at 10 µg/mL: Conc 10 μg/ml; for fold induction at 3 µg/mL: Conc 3 μg/ml
Protocol: CHO-K1 cells were cultured in whole DMEM media (DMEM—High Glucose with 10% fetal bovine serum, 1% Non-essential Amino Acids, and 1% Penicillin-Streptomycin) at 37° C. with 5% CO2. Two million cells were plated into 10-cm dishes 24 hrs prior to transfection.
Transient transfections were completed as recommended by Gibco BRL using their Lipofectamine Plus system. First, 6 μg of pRSVO-luc and 6 μg of APP-lacI construct DNA were added to 460 μL Opti-Mem transfection media and incubated with 30 μL Plus reagent for 15 minutes. Then, a lipid mixture of 40 μL Lipofectamine reagent and 460 μL Opti-Mem transfection media was incubated with the DNA-Plus reagent mixture for 15 minutes. During the DNA-lipid incubation, the CHO-K1 cells were washed once and covered in 5.0 mL DMEM media without Penicillin-Streptomycin. The DNA-lipid preparation was then layered onto these cells and incubated at 37° C. overnight.
[…] transfected cells per well (100 μL total volume) were plated into sterile, opaque Packard 96-well Culture-Plates in clear DMEM whole media (DMEM—without phenol red) and incubated at 37° C. with 5% CO2 for 3-5 hours.
Compounds were diluted using two different protocols; one protocol was used for compounds supplied neat (weighed powder in vial) and the other protocol was used for compounds supplied in solution (20 mM in DMSO in 96-well plates). For both protocols, 25 mM Hepes and 25 mM Hepes/1% DMSO were prepared fresh to be used as diluent. The Hepes/DMSO was used as the diluent control on all experimental plates.
The following table depicts the steps for compound dilution (please note that the last step was the addition of compound to cells/media in tissue culture plate).
Because some compounds were present in 96-well format at 20 mM, the following represents the protocol for their dilution (note that an average molecular weight of these compounds was used to calculate these dilutions and as above, the last step was the addition of compound to cells/media in tissue culture plate).
Once the compounds were diluted, they were applied in duplicate on cells in tissue culture plates (prepared above). Cells were incubated with compound at 37° C. with 5% CO2 for an additional 36-48 hours.
Luciferase assays (LucLite reagent, Packard) were performed and were read on a Packard TopCount instrument. Media was removed from each 96-well plate and replaced with 100 μL PBS per well (with Mg^2+ and Ca^2+). An equal volume (100 μL) of the LucLite lysis/substrate buffer was added to each well and the plates were sealed and mixed in the dark on a rotary shaker for 15-30 minutes at room temperature. Luciferase readings were then taken on the TopCount instrument. Measurements were expressed as relative light units (RLU) and are calculated and analyzed in MS Excel as follows: […]

Compound	(%)APPI Toxicity (CHO-K1 cells; Conc 20 μg/ml)	fold induction at 20 µg/mL (beta amyloid production)	other results
CC[C@H](C)[C@@H](CO)NS(=O)(=O)c1c(C)cccc1Cl [Example 7, 2-chloro-N-[(1S,2S)-1-(hydroxymethyl)-2-methylbutyl]-6-methylbenzenesulfonamide]	1 (1=non-toxic)	1.6	
CC[C@H](C)[C@@H](CO)NS(=O)(=O)c1cc(Cl)cc(Cl)c1 [Example 8, 3,5-dichloro-N-[(1S,2S)-1-(hydroxymethyl)-2-methylbutyl]benzenesulfonamide]	1 (1=non-toxic)	2	
CC[C@H](C)[C@@H](CO)NS(=O)(=O)c1ccc(F)cc1F [Example 9, 2,4-difluoro-N-[(1S,2S)-1-(hydroxymethyl)-2-methylbutyl]benzenesulfonamide]	1 (1=non-toxic)	1.8	(%)APPI Toxicity (CHO-K1 cells; Conc 10 μg/ml): 1 (1=non-toxic); fold induction at 10 µg/mL (beta amyloid production): 2.2
CC[C@H](C)[C@@H](CO)NS(=O)(=O)c1ccc(F)cc1 [Example 10, 4-fluoro-N-[(1S,2S)-1-(hydroxymethyl)-2-methylbutyl]benzenesulfonamide]	1 (1=non-toxic)	3.3	
CC[C@H](C)[C@@H](CO)NS(=O)(=O)c1ccccc1F [Example 11, 2-fluoro-N-[(1S,2S)-1-(hydroxymethyl)-2-methylbutyl]benzenesulfonamide]	1 (1=non-toxic)	2.3	
CC[C@H](C)[C@@H](CO)NS(=O)(=O)c1cccc2ccccc12 [Example 12, N-[(1S,2S)-1-(hydroxymethyl)-2-methylbutyl]naphthalene-1-sulfonamide]	1 (1=non-toxic)	2.9	
CC[C@H](C)[C@@H](CO)NS(=O)(=O)c1ccc2ccccc2c1 [Example 13, N-[(1S,2S)-1-(hydroxymethyl)-2-methylbutyl]naphthalene-2-sulfonamide]	1 (1=non-toxic)	1.8	
O=S(=O)(N[C@H](CO)Cc1ccccc1)c1ccc(Br)cc1 [Example 15, N-[(1S)-1-benzyl-2-hydroxyethyl]-4-bromobenzenesulfonamide]	1 (1=non-toxic)	1.5	
O=S(=O)(N[C@H](CO)C1CCCCC1)c1ccc(Br)cc1 [Example 16, 4-Bromo-N-[(1S)-1-cyclohexyl-2-hydroxyethyl]benzenesulfonamide]	1 (1=non-toxic)	2.7	
O=S(=O)(N[C@@H](CO)c1ccc(O)cc1)c1ccc(Br)cc1 [Example 17, 4-bromo-N-[(1R)-2-hydroxy-1-(4-hydroxyphenyl)ethyl]benzenesulfonamide]	1 (1=non-toxic)	2.2	
CC(C)C[C@@H](CO)NS(=O)(=O)c1ccc(Br)cc1 [Example 18, 4-bromo-N-[(1S)-1-(hydroxymethyl)-3-methylbutyl]benzenesulfonamide]	1 (1=non-toxic)	1.9	
O=S(=O)(N[C@H](CO)Cc1cc2ccccc2[nH]1)c1ccc(Br)cc1 [Example 19, 4-bromo-N-[(1S)-2-hydroxy-1-(1H-indol-2-ylmethyl)ethyl]benzenesulfonamide]	1 (1=non-toxic)	1.6	
CC[C@H](C)[C@@H](CO)NS(=O)(=O)c1cc(F)c(Br)cc1F [Example 20, 4-Bromo-2,5-difluoro-N-[(1S,2S)-1-(hydroxymethyl)-2methylbutyl]benzenesulfonamide]	1 (1=non-toxic)	3.3	
CC[C@H](C)[C@@H](CO)NS(=O)(=O)c1cc(Br)ccc1Br [Example 21, 2,5-dibromo-N-[(1S,2S)-1-(hydroxymethyl)-2-methylbutyl]benzenesulfonamide]	1 (1=non-toxic)	1.6	
CC[C@H](C)[C@@H](CO)NS(=O)(=O)c1ccc(Br)c(Br)c1 [Example 22, 3,4-dibromo-N-[(1S,2S)-1-(hydroxymethyl)-2-methylbutyl]benzenesulfonamide]	1 (1=non-toxic)	1.7	
CC[C@H](C)[C@@H](CO)NS(=O)(=O)c1cccc(Cl)c1Cl [Example 23, 2,3-dichloro-N-[(1S,2S)-1-(hydroxymethyl)-2-methylbutyl]benzenesulfonamide]	1 (1=non-toxic)	8.3	(%)APPI Toxicity (CHO-K1 cells; Conc 3 μg/ml): 1 (1=non-toxic); (%)APPI Toxicity (CHO-K1 cells; Conc 10 μg/ml): 1 (1=non-toxic); fold induction at 3 µg/mL (beta amyloid production): 1.67; fold induction at 10 µg/mL (beta amyloid production): 3.6
CC[C@H](C)[C@@H](CO)NS(=O)(=O)c1ccc(Cl)c(Cl)c1 [Example 24, 3,4-dichloro-N-[(1S,2S)-1-(hydroxymethyl)-2-methylbutyl]benzenesulfonamide]	1 (1=non-toxic)	1.6	
CC[C@H](C)[C@@H](CO)NS(=O)(=O)c1cc(Cl)c(Cl)cc1Cl [Example 25, 2,4,5-trichloro-N-[(1S,2S)-1-(hydroxymethyl)-2-methylbutyl]benzenesulfonamide]	1 (1=non-toxic)	1.8	
CC(C)[C@@H](CO)NS(=O)(=O)c1cc(F)c(Br)cc1F [Example 26, 4-bromo-2,5-difluoro-N-[(1S)-1-(hydroxymethyl)-2-methylpropyl]benzenesulfonamide]	1 (1=non-toxic)	2.4	
CC(C)[C@@H](CO)NS(=O)(=O)c1ccc(Cl)c(Cl)c1 [Example 27, 3,4-dichloro-N-[(1S)-1-(hydroxymethyl)-2-methylpropyl]benzenesulfonamide]	1 (1=non-toxic)	2.2	
CC(C)[C@@H](CO)NS(=O)(=O)c1c(Cl)cc(Cl)cc1Cl [Example 28, 2,4,6-trichloro-N-[(1S)-1-(hydroxymethyl)-2-methylpropyl]benzenesulfonamide]	1 (1=non-toxic)	1.5	
CC(C)(C)[C@@H](CO)NS(=O)(=O)c1ccc(Cl)c(Cl)c1 [Example 30, 3,4-dichloro-N-[(1S)-1-(hydroxymethyl)-2,2-dimethylpropyl]benzenesulfonamide]	1 (1=non-toxic)	2.1	
CC(C)(C)[C@@H](CO)NS(=O)(=O)c1cc(Cl)c(Cl)cc1Cl [Example 31, 2,4,5-trichloro-N-[(1S)-1-(hydroxymethyl)-2,2-dimethylpropyl]benzenesulfonamide]	1 (1=non-toxic)	2.8	
CC(C)(C)[C@@H](CO)NS(=O)(=O)c1c(Cl)cc(Cl)cc1Cl [Example 32, 2,4,6-trichloro-N-[(1 S)-1-(hydroxymethyl)-2,2-dimethylpropyl]benzenesulfonamide]	1 (1=non-toxic)	2.2	
CC[C@@H](C)[C@H](CO)NS(=O)(=O)c1ccc(Br)cc1 [Example 33, 4-Bromo-N-[(1R,2R)-1-(hydroxymethyl)-2-methylbutyl]benzenesulfonamide]	1 (1=non-toxic)	3.9	
CC(C)[C@@](C)(CO)NS(=O)(=O)c1ccc(Br)cc1 [Example 34, 4-bromo-N-[(1 S)-1-(hydroxymethyl)-1,2-dimethylpropyl]benzenesulfonamide]	1 (1=non-toxic)	4.2	
CC(c1ccccc1)C(CO)NS(=O)(=O)c1ccc(Br)cc1 (centres unmarked) [Example 35, 4-bromo-N-[-1-(hydroxymethyl)-2-phenylpropyl]benzenesulfonamide]	1 (1=non-toxic)	2.4	
CC[C@@H](C)[C@@H](CO)NS(=O)(=O)c1ccc(Br)cc1 [Example 36, 4-bromo-N-[(1S,2R)-1-(hydroxymethyl)-2-methylbutyl]benzenesulfonamide]	1 (1=non-toxic)	6.4	(%)APPI Toxicity (CHO-K1 cells; Conc 1 μg/ml): 1 (1=non-toxic); (%)APPI Toxicity (CHO-K1 cells; Conc 3 μg/ml): 1 (1=non-toxic); (%)APPI Toxicity (CHO-K1 cells; Conc 10 μg/ml): 1 (1=non-toxic); fold induction at 1 µg/mL (beta amyloid production; Conc 1 μg/ml): 1.6; fold induction at 3 µg/mL (beta amyloid production): 2.05; fold induction at 10 µg/mL (beta amyloid production): 3.33
